Reference: US7666868B2, “N-sulphonylpyrroles and their use as histone deacetylase inhibitors” (4SC AG, priority 2005, dated 2010)
pEC50, pIC50: −log10 of the molar value.

What was measured:
[1] = system: histone H3 acetylation (lysine 9+14) in HeLa cervical carcinoma cells; assay: Cellular histone H3 acetylation assay; assay type: cell-based; conditions: Homo sapiens, 24 h incubation with compound, read-out: EC50 (histone H3 acetylating cellular potency)
From the text: To assess the cellular efficacy of an histone deactylase inhibitor in vitro, an assay is set up in black clear-bottom 96-well plates and optimized for use on the Cellomics “ArrayScan II” platform for a quantitative calculation of histone acetylation. The protocol uses a polyclonal rabbit antibody, specifically binding to acetylated lysine 9+14 of human histone H3 on fixed cells with an Alexa Fluor 488 labeled goat ant rabbit-IgG used for counterstaining (modified from Braunger et al. MCR annual conference 2003, Abstract 4556).
5×10^3 HeLa cervical carcinoma cells/well (ATCC CCL-2) in 200 μl Dulbecco's modified Eagle's medium (DMEM) containing 10% fetal calf serum are seeded at day 1 in Packard view plates and incubated for 24 h under standard cell culture conditions. On day 2, 2 μl test compound (100× final concentration) is added and incubation continued for further 24 h. On day 3, the culture medium is discarded and attached cells fixed for 15 min at room temperature by addition of 100 μl fixation buffer (3.7% v:v formaldehyde in phosphate buffered saline/PBS). After discarding the fixation buffer and one wash with PBS, cells are permeabilized at room temperature by addition of 100 μl/well permeabilization buffer (30.8 mM NaCl, 0.54 mM Na2HPO4, 0.31 mM KH2PO4, 5% v:v Triton X-100) for 15 min at room temperature. After discarding the permeabilization buffer and washing twice with 100 μl/well blocking solution (PBS with 0.05% v:v Tween 20 and 5% w:v milk powder) at room temperature, the 1st antibody (anti-K9+14 histone H3 antibody, Calbiochem No. 382158) in blocking solution (50 μl/well) is added. After incubation for 1 h at 37° C., the wells are washed twice at room temperature with 100 μl/well blocking solution before addition of the 2nd antibody (goat-anti-rabbit Alexa Fluor 488; MoBiTec No. A-11008) in blocking solution (50 μl/well). After further incubation for 1 h at 37° C., wells are washed twice with 100 μl/well blocking solution room temperature. Finally, 100 d/well PBS are added and image analysis performed on the Cellomics “ArrayScan II” platform. For calculation of EC50 values, the nuclear fluorescence in cells treated with and without a reference HDAC inhibitor (eg NVP-LBH-589) are taken as a positive and negative control. For EC50 determination, the percentage of positive cells is determined and EC50 calculation done from concentration-effect curves by means of non-linear regression.

[2] = system: HeLa cervical carcinoma cell line; assay: Cellular cytotoxicity assay (Alamar Blue / Resazurin); assay type: cell-based; conditions: Homo sapiens; HeLa cells, 48 hours incubation; read-out: IC50 (anti-proliferative/cytotoxic potency)
Experimental: The anti-proliferative activity of the histone deacetylase inhibitory compounds as described herein, is evaluated with the HeLa cervical carcinoma cell line (ATCC CCL2) using the Alamar Blue (Resazurin) cell viability assay (O'Brien et al. Eur J Biochem 267, 5421-5426, 2000). Resazurin is reduced to the fluorescent resorufin by cellular dehydrogenase activity, correlating with viable, proliferating cells. Test compounds are dissolved as 10 mM solutions in dimethylsulfoxide (DMSO) and subsequently diluted in semi-logarithmic steps. HeLa cells are seeded into 96 well flat bottom plates at a density of 3000 cells per well in a volume of 200 μl per well. 24 hours after seeding 1 μl each of the compound dilutions are added into each well of the 96 Well plate. Each compound dilution is tested as quadruplicates. Wells containing untreated control cells are filled with 200 μl DMEM medium containing 0.5% v:v DMSO. The cells are then incubated with the substances for 48 hours at 37° C. in a humidified atmosphere containing 5% carbon dioxide. To determine the viability of the cells, 20 μl of an Resazurin solution (Sigma; 90 mg/l) are added. After 4 hours incubation at 37° C. the fluorescence is measured at an extinction of 544 nm and an emission of 590 nm. For the calculation of the cell viability the emission value from untreated cells is set as 100% viability and the emission rates of treated cells are set in relation to the values of untreated cells. Viabilites are expressed as % values. The corresponding IC50 values of the compounds for cytotoxic activity are determined from the concentration-effect curves by means of non-linear regression.

pEC50 [1] | melting point | Compound | pIC50 [2]
5.28 to 6.55 | – | Cn1cc(-c2ccc(S(=O)(=O)n3ccc(/C=C/C(=O)NO)c3)cc2)cn1 [Compound 2, (E)-N-Hydroxy-3-{1-[4-(1-methyl-1H-pyrazol-4-yl)-benzenesulfonyl]-1H-pyrrol-3-yl}-acrylamide] | 5.64 to 7.11
5.28 to 6.55 | – | COc1ccc(-c2ccc(S(=O)(=O)n3ccc(/C=C/C(=O)NO)c3)cc2)cn1 [Compound 3, (E)-N-Hydroxy-3-{1-[4-(6-methoxy-pyridin-3-yl)-benzenesulfonyl]-1H-pyrrol-3-yl}-acrylamide] | 5.64 to 7.11
5.28 to 6.55 | – | Nc1ccc(-c2ccc(S(=O)(=O)n3ccc(C=CC(=O)NO)c3)cc2)cn1 [Compound 4, (E)-3-∴1-[4-(6-Amino-pyridin-3-yl)-benzenesulfonyl]-1H-pyrrol-3-yl)-N-hydroxy-acrylamide] | 5.64 to 7.11
5.36 to 7.57 | – | O=C(/C=C/c1ccn(S(=O)(=O)c2cccc(-c3ccc(CN4CCOCC4)cc3)c2)c1)NO [Compound 36, (E)-N-Hydroxy-3-[1-(4′-morpholin-4-ylmethyl-biphenyl-3-sulfonyl)-1H-pyrrol-3-yl]-acrylamide] | –
5.36 to 7.57 | 167 to 172 °C | O=C(/C=C/c1ccn(S(=O)(=O)c2cc(-c3ccccc3)ccc2OCCCN2CCOCC2)c1)NO [Compound 38, (E)-N-Hydroxy-3-{1-[4-(3-morpholin-4-yl-propoxy)-biphenyl-3-sulfonyl]-1H-pyrrol-3-yl}-acrylamide] | –
5.36 to 7.57 | – | CN1CCN(c2cc(-c3ccc(S(=O)(=O)n4ccc(/C=C/C(=O)NO)c4)s3)ccn2)CC1 [Compound 42, (E)-N-Hydroxy-3-(1-{5-[2-(4-methyl-piperazin-1-yl)-pyridin-4-yl]-thiophene-2-sulfonyl}-1H-pyrrol-3-yl)-acrylamide] | –
5.36 to 7.57 | – | O=C(/C=C/c1ccn(S(=O)(=O)c2cccc(-c3ccc(OCCN4CCCC4)cc3)c2)c1)NO [Compound 43, (E)-N-Hydroxy-3-{1-[4′-(2-pyrrolidin-1-yl-ethoxy)-biphenyl-3-sulfonyl]-1H-pyrrol-3-yl}-acrylamide] | –
5.36 to 7.57 | – | CN(C)Cc1ccc(-c2ccc(S(=O)(=O)n3ccc(/C=C/C(=O)NO)c3)s2)cc1 [Compound 46, (E)-3-{1-[5-(4-Dimethylaminomethyl-phenyl)-thiophene-2-sulfonyl]-1H-pyrrol-3-yl}-N-hydroxy-acrylamide] | –
5.36 to 7.57 | – | O=C(/C=C/c1ccn(S(=O)(=O)c2ccc(-c3ccc(CN4CCOCC4)cc3)s2)c1)NO [Compound 54, (E)-N-Hydroxy-3-{1-[5-(4-morpholin-4-ylmethyl-phenyl)-thiophene-2-sulfonyl]-1H-pyrrol-3-yl}-acrylamide] | –
5.36 to 7.57 | – | O=C(/C=C/c1ccn(S(=O)(=O)c2ccc(-c3ccc(OCCN4CCOCC4)cc3)s2)c1)NO [Compound 56, (E)-N-Hydroxy-3-(1-{5-[4-(2-morpholin-4-yl-ethoxy)-phenyl]-thiophene-2-sulfonyl}-1H-pyrrol-3-yl)-acrylamide] | –
5.36 to 7.57 | – | O=C(/C=C/c1ccn(S(=O)(=O)c2ccc(-c3ccc(OCCCN4CCOCC4)cc3)s2)c1)NO [Compound 57, (E)-N-Hydroxy-3-(1-{5-[4-(3-morpholin-4-yl-propoxy)-phenyl]-thiophene-2-sulfonyl}-1H-pyrrol-3-yl)-acrylamide] | –
5.36 to 7.57 | – | CN1CCN(Cc2ccc(-c3cccc(S(=O)(=O)n4ccc(/C=C/C(=O)NO)c4)c3)cc2)CC1 [Compound 62, (E)-N-Hydroxy-3-{1-[4′-(4-methyl-piperazin-1-ylmethyl)-biphenyl-3-sulfonyl]-1H-pyrrol-3-yl}-acrylamide] | –

Second part, the molecule before the results:

Compound | pEC50 [1] | melting point | pIC50 [2]
Cn1ccc2cc(-c3ccc(S(=O)(=O)n4ccc(/C=C/C(=O)NO)c4)cc3)ccc21 [Compound 1, (E)-N-Hydroxy-3-{1-[4-(1-methyl-1H-indol-5-yl)-benzenesulfonyl]-1H-pyrrol-3-yl}-acrylamide] | 5.28 to 6.55 | – | 5.64 to 7.11
COc1ccc(-c2ccc(S(=O)(=O)n3ccc(/C=C/C(=O)Nc4ccccc4N)c3)cc2)cn1 [Compound 5, (E)-N-(2-Amino-phenyl)-3-{1-[4-(6-methoxy-pyridin-3-yl)-benzenesulfonyl]-1H-pyrrol-3-yl}-acrylamide] | 5.28 to 6.55 | – | 5.64 to 7.11
Nc1ccc(-c2ccc(S(=O)(=O)n3ccc(/C=C/C(=O)Nc4ccccc4N)c3)cc2)cn1 [Compound 6, (E)-N-(2-Amino-phenyl)-3-{1-[4-(6-amino-pyridin-3-yl)-benzenesulfonyl]-1H-pyrrol-3-yl}-acrylamide] | 5.28 to 6.55 | – | 5.64 to 7.11
Cn1cc(-c2ccc(S(=O)(=O)n3ccc(/C=C/C(=O)Nc4ccccc4N)c3)cc2)cn1 [Compound 7, (E)-N-(2-Amino-phenyl)-3-{1-[4-(1-methyl-1H-pyrazol-4-yl)-benzenesulfonyl]-1H-pyrrol-3-yl}-acrylamide] | 5.28 to 6.55 | – | 5.64 to 7.11
Cn1cc(-c2cccc(S(=O)(=O)n3ccc(/C=C/C(=O)Nc4ccccc4N)c3)c2)cn1 [Compound 15, (E)-N-(2-Amino-phenyl)-3-{1-[3-(1-methyl-1H-pyrazol-4-yl)-benzenesulfonyl]-1H-pyrrol-3-yl}-acrylamide] | – | 193 to 197 °C | –
Cc1ccc(S(=O)(=O)NC2(S(=O)(=O)n3ccc(/C=C/C(=O)NO)c3)C=CC(c3ccccc3)=CC2)cc1 (centres unmarked) [Compound 29, (E)-N-Hydroxy-3-{1-[4-(toluene-4-sulfonylamino)-biphenyl-4-sulfonyl]-1H-pyrrol-3-yl}-acrylamide] | – | 119 to 126 °C | –
CN(C)Cc1ccc(-c2cccc(S(=O)(=O)n3ccc(/C=C/C(=O)NO)c3)c2)cc1 [Compound 37, (E)-3-[1-(4′-Dimethylaminomethyl-biphenyl-3-sulfonyl)-1H-pyrrol-3-yl]-N-hydroxy-acrylamide] | 5.36 to 7.57 | – | –
CN(C)CC1(S(=O)(=O)n2ccc(/C=C/C(=O)Nc3ccccc3N)c2)C=CC(c2ccccc2)=CC1 (centres unmarked) [Compound 47, (E)-N-(2-Amino-phenyl)-3-[1-(4-dimethylaminomethyl-biphenyl-4-sulfonyl)-1H-pyrrol-3-yl]-acrylamide] | – | 211 to 216 °C | –
COCCNCc1ccc(-c2cccc(S(=O)(=O)n3ccc(C=CC(=O)NO)c3)c2)cc1 [Compound 58, (E)-N-Hydroxy-3-(1-{4′-[(2-methoxy-othylamino)-methyl]-biphenyl-3-sulfonyl}-1H-pyrrol-3-yl)-acrylamide] | 5.36 to 7.57 | – | –
CS(=O)(=O)Nc1cccc(-c2ccc(S(=O)(=O)n3ccc(/C=C/C(=O)Nc4ccccc4N)c3)cc2)c1 [Compound 59, (E)-N-(2-Amino-phenyl)-3-[1-(3′-methanesulfonylamino-biphenyl-4-sulfonyl)-1H-pyrrol-3-yl]-acrylamide] | 5.36 to 7.57 | – | –
NCC1(S(=O)(=O)n2ccc(/C=C/C(=O)Nc3ccccc3N)c2)C=CC(c2ccccc2)=CC1 (centres unmarked) [Compound 93, (E)-3-[1-(4-Aminomethyl-biphenyl-4-sulfonyl)-1H-pyrrol-3-yl]-N-(2-amino-phenyl)-acrylamide] | – | 278 to 280 °C | –
Nc1ccccc1NC(=O)/C=C/c1ccn(S(=O)(=O)C2(CN3CCOCC3)C=CC(c3ccccc3)=CC2)c1 (centres unmarked) [Compound 107, (E)-N-(2-Amino-phenyl)-3-[1-(4-morpholin-4-ylmethyl-biphenyl-4-sulfonyl)-1H-pyrrol-3-yl]-acrylamide] | – | 196 to 201 °C | –
